# Values quoted from earlier work in article PMC9516332 (Frontiers in Oncology, 2022).
# Read-outs that look alike come from different tables or passages of the source.
# Legend:
# Conditions in all cases: cited from earlier work
# [1] = target: T1, panel of 255 wild-type kinases (Homo sapiens, UniProt P53778)
# T1 sequence (P53778 1-367): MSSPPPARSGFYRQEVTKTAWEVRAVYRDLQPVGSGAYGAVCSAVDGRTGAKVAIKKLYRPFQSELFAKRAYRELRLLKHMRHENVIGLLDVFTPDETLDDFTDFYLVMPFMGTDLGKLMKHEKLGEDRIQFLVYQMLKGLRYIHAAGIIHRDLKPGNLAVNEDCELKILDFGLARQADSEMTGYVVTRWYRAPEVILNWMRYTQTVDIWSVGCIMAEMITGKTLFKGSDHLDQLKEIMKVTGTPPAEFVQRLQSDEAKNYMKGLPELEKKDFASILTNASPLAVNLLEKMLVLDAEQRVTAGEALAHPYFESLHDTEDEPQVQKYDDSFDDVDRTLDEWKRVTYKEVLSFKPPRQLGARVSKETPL
# [2] = target: panel of 255 wild-type kinases (Homo sapiens, UniProt P08631)
# [3] = target: T2, panel of 255 wild-type kinases (Homo sapiens, UniProt O94806)
# T2 sequence (O94806 1-890): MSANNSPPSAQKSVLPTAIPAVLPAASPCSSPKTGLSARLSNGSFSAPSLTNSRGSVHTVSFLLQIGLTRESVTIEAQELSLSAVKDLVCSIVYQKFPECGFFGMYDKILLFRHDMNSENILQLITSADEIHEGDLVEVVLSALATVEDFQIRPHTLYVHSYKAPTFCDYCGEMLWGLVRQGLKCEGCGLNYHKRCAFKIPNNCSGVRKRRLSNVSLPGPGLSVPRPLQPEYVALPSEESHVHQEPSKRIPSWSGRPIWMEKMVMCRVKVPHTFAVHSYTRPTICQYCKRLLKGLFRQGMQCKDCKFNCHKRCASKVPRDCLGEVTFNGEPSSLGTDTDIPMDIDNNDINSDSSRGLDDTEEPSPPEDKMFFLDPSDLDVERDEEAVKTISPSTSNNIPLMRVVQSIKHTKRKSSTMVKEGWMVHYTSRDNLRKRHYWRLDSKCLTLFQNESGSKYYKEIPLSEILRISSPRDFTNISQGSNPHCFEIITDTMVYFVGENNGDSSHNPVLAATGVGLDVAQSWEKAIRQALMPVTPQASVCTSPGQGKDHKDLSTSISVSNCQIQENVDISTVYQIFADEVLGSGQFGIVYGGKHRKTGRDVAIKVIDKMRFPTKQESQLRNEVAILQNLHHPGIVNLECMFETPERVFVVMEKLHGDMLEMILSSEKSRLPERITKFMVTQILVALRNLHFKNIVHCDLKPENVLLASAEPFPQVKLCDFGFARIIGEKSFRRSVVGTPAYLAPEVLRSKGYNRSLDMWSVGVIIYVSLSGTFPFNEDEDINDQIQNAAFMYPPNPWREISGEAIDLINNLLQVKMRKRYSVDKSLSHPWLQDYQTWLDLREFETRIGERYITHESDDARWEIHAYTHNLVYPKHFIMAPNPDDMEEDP
# [4] = target: T3, panel of 255 wild-type kinases (Homo sapiens, UniProt Q12866)
# T3 sequence (Q12866 21-999): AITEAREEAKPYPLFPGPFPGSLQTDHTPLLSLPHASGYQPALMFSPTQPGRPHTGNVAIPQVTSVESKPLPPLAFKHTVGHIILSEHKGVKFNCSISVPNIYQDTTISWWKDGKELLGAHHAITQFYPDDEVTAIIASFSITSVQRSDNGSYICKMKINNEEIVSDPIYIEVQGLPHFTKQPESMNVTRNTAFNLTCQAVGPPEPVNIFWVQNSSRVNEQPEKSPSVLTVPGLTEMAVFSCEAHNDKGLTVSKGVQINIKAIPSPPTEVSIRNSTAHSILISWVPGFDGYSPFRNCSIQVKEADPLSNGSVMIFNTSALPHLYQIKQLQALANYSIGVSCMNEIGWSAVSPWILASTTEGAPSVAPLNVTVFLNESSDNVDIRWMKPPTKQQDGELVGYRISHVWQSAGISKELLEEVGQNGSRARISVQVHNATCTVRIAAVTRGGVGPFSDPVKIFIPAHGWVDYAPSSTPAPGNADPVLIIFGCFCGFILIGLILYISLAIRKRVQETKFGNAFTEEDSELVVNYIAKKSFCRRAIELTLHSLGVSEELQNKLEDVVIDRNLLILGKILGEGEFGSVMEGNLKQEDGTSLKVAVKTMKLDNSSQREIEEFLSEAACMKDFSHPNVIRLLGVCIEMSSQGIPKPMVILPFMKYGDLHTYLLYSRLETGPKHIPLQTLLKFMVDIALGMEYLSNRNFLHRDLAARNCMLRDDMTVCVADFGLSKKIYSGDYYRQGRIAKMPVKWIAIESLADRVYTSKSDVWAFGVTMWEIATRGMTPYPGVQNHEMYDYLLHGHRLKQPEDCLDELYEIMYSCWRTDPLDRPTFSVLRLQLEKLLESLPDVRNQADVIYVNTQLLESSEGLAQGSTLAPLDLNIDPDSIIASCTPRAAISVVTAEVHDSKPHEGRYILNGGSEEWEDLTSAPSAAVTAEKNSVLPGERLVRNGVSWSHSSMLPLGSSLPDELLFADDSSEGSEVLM
# [5] = target: panel of 255 wild-type kinases (Homo sapiens, UniProt P08581)
# [6] = p38γ, 1 µmol/L single concentration, ref DOI: 10.1158/1535-7163.MCT-18-0877
# [7] = kinase HCK, 1 µmol/L single concentration, ref DOI: 10.1158/1535-7163.MCT-18-0877
# [8] = kinase PKD3, 1 µmol/L single concentration, ref DOI: 10.1158/1535-7163.MCT-18-0877
# [9] = MER, 1 µmol/L single concentration, ref DOI: 10.1158/1535-7163.MCT-18-0877
# [10] = MET, 1 µmol/L single concentration, ref DOI: 10.1158/1535-7163.MCT-18-0877
# [11] = kinase HCK, 1 µmol/L single concentration, ref DOI: 10.1371/journal.pone.0092146
# [12] = p38γ, 1 µmol/L single concentration, ref DOI: 10.1371/journal.pone.0092146
# [13] = kinase PKD3, 1 µmol/L single concentration, ref DOI: 10.1371/journal.pone.0092146
# [14] = MER, 1 µmol/L single concentration, ref DOI: 10.1371/journal.pone.0092146
# [15] = MET, 1 µmol/L single concentration, ref DOI: 10.1371/journal.pone.0092146
Structure (SMILES),"%-inhibition, p38γ [1, 6] [%]","%-inhibition at 1 µmol/L, HCK [2, 7] [%]","%-inhibition at 1 µmol/L, PKD3 [3, 8] [%]","%-inhibition, MER [4, 9] [%]","%-inhibition, MET [5, 10] [%]","%-inhibition at 1 µmol/L, HCK [2, 11] [%]",also measured
CC#CC(=O)N1CCC[C@H]1c1nc(-c2ccc(C(=O)Nc3ccccn3)cc2)c2c(N)nccn12 [acalabrutinib],-1.74,0.452,-2,-3.37,4,,
CCc1cc2c(cc1N1CCC(N3CCOCC3)CC1)C(C)(C)c1[nH]c3cc(C#N)ccc3c1C2=O [alectinib],1.73,43,2.17,56,8,,
COc1cc(N2CCC(N3CCN(C)CC3)CC2)ccc1Nc1ncc(Cl)c(Nc2ccccc2P(C)(C)=O)n1 [brigatinib],,,,,,,"%-inhibition, p38γ [1]: 3%; %-inhibition at 1 µmol/L, HCK [2]: 78%; %-inhibition at 1 µmol/L, PKD3 [3]: 85%; %-inhibition, MER [4]: 89%; %-inhibition, MET [5]: 41%"
Cc1cc(Nc2ncc(Cl)c(Nc3ccccc3S(=O)(=O)C(C)C)n2)c(OC(C)C)cc1C1CCNCC1 [ceritinib],3.32,15,46,51,16,,
O=C(c1ccc(F)c(F)c1Nc1ccc(I)cc1F)N1CC(O)([C@@H]2CCCCN2)C1 [cobimetinib],2,-3.63,4.41,1.18,7,,
C[C@@H](Oc1cc(-c2cnn(C3CCNCC3)c2)cnc1N)c1c(Cl)ccc(F)c1Cl [crizotinib],,,,,,26,
CC(C)(C)c1nc(-c2cccc(NS(=O)(=O)c3c(F)cccc3F)c2F)c(-c2ccnc(N)n2)s1 [dabrafenib],,,,,,57,"%-inhibition, p38γ [1, 12]: 0.311%; %-inhibition at 1 µmol/L, PKD3 [3, 13]: 93%; %-inhibition, MER [4, 14]: -0.876%; %-inhibition, MET [5, 15]: 27%"
C=CC(=O)N1CCC[C@@H](n2nc(-c3ccc(Oc4ccccc4)cc3)c3c(N)ncnc32)C1 [ibrutinib],3.51,100,5.48,0.565,12,,
CO[C@@H]1[C@H](N(C)C(=O)c2ccccc2)C[C@H]2O[C@]1(C)n1c3ccccc3c3c4c(c5c6ccccc6n2c5c31)C(=O)NC4 [midostaurin],7,,,85,45,,
C=CC(=O)Nc1cc(Nc2nccc(-c3cn(C)c4ccccc34)n2)c(OC)cc1N(C)CCN(C)C [osimertinib],2.19,0.0489,28,10,12,,
CC(=O)Nc1cccc(-n2c(=O)n(C3CC3)c(=O)c3c(Nc4ccc(I)cc4F)n(C)c(=O)c(C)c32)c1 [trametinib],,,,,,-2.84,"%-inhibition, p38γ [1, 12]: 0.684%; %-inhibition at 1 µmol/L, PKD3 [3, 13]: 2.48%; %-inhibition, MER [4, 14]: -6.62%; %-inhibition, MET [5, 15]: -2.41%"
CCCS(=O)(=O)Nc1ccc(F)c(C(=O)c2c[nH]c3ncc(-c4ccc(Cl)cc4)cc23)c1F [vemurafenib],,,,,,30,"%-inhibition, p38γ [1, 12]: -0.299%; %-inhibition at 1 µmol/L, PKD3 [3, 13]: -4.7%; %-inhibition, MER [4, 14]: 6%; %-inhibition, MET [5, 15]: 3.67%"
